Assay results from publication PMC9481570, “A small molecule antagonist of SMN disrupts the interaction between SMN and RNAP II” (Nature Communications, 2022).

Experiments:
[1] = molecular target: T1, FXR1 (Homo sapiens, UniProt P51114); assay: ITC binding to FXR1
T1 construct: FXR1 (aa 2–132); His (N, cleaved yes); made in house; host or cells: E. coli BL21 (DE3) Codon plus RIL
Source text: (§1) The coding DNA fragments of following Tudor domains were cloned into pET28-MHL vector: SMN (aa 82–147), UHRF1 (aa 126–285), SMNDC1 (aa 53–130), TDRD3 (aa 554–611), SND1 (aa 650–910), TDRD2 (aa 327–420), FXR1 (aa 2–132), PHF1 (aa 28–87), SGF29 (aa 115–293), JMJD2A (aa 897–1101), 53BP1 (aa 1483–1606), SETDB1 (aa 190–410), LBR (aa 1–67), ZGPAT (aa 120–271). The coding regions of chromodomain of CBX7 (aa 8–62), PWWP domain of DNMT3A (aa 275–417), WD40 repeats of WDR5 (aa 24–334) and CW domain of ZCWPW2 (aa 21–78) were also subcloned into pET28-MHL vector to generate N-terminally His-tagged fusion protein. The MBT repeats of L3MBTL1 (aa 200–522) and L3MBTL2 (aa 170–625) were subcloned into pET28GST-LIC vector to generate N-terminally GST-His-tagged fusion protein. All the plasmids were generated by ligase independent cloning (Vazyme Biotech, C112 or ABclonal Technology, RK21020). […] The molecular weight of all protein samples was measured by mass spectrometry.
(§2) For the ITC measurement, the concentrated proteins were diluted into 20 mM Tris-HCl, pH 7.5, 150 mM NaCl (ITC buffer); the lyophilized compounds were dissolved in the same buffer, and the pH value was adjusted by adding 2 M NaOH or 2 M HCl. […] Compound concentrations were calculated from the mass and the volume of the solvent. […]

[2] = molecular target: T2, SETDB1 (Homo sapiens, UniProt Q15047); assay: ITC binding to SETDB1; settings: Fig. 1c
T2 construct: SETDB1 (aa 190–410); His (N, cleaved yes); made in house; host or cells: E. coli BL21 (DE3) Codon plus RIL
Source text: as §1, §2

[3] = molecular target: T3, SMN_Y130A (Homo sapiens, UniProt Q16637, Y130A); assay: ITC binding to SMN Tudor mutant Y130A; settings: Fig. 3d
T3 construct: cloned into pET28-MHL vector: SMN (aa 82–147); His (N, cleaved yes); made in house; host or cells: E. coli BL21 (DE3) Codon plus RIL
Source text: as §1, §2

[4] = molecular target: T4, DNMT3A (PWWP) (Homo sapiens, UniProt Q9Y6K1); assay: ITC binding to PWWP domain of DNMT3A; settings: Fig. 1c
T4 construct: DNMT3A (aa 275–417); His (N, cleaved yes); made in house; host or cells: E. coli BL21 (DE3) Codon plus RIL
Source text: as §1, §2

[5] = Solubility of the hit compound; assay type: physicochemical
Procedure: Screen Format 384-well black plates (Greiner, 784290)
Concentration(s) tested 2 mM compound with 2% DMSO (final concentration), 40 nM FITC-labeled H3K9me3 peptide, 8 μM tandem
Tudor domain of UHRF1 protein
Plate controls Background: FITC-labeled peptide only; negative control: FITC-labeled peptide and protein; positive control: FITC-labeled peptide and protein plus unlabeled H3K9me3 peptide
Reagent/ compound dispensing system Agilent Bravo robot
Detection instrument and software Synergy 4 microplate reader (BioTek), GraphPad […]
Assay validation/QC Z’ factor = 0.8
Correction factors Background value
Normalization All the digital values of fluorescence polarization signal subtract the background signal value.
Additional comments High concentrations (>2.5%) of DMSO might affect peptide binding and signal-to-noise ratios
Post-HTS analysis Hit criteria The signal of negative control was set as 100%. When the signal of sample was less than 50% of negative control, it was taken as hit.
Additional assay(s) The hits were further confirmed by dose response analysis with 1 mM as the highest concentration of the hits and 11 serial dilutions by 2 times, and then by isothermal titration calorimetry assay.
Confirmation of hit purity and structure The compound was repurchased (Specs, ID: AG- […]

[6] = molecular target: T5, PHF1 (Homo sapiens, UniProt O43189); assay: ITC binding to PHF1; settings: Fig. 1c
T5 construct: PHF1 (aa 28–87); His (N, cleaved yes); made in house; host or cells: E. coli BL21 (DE3) Codon plus RIL
Source text: as §1, §2

[7] = molecular target: T6, L3MBTL2 (MBT) (Homo sapiens, UniProt Q969R5); assay: ITC binding to MBT repeats of L3MBTL2; settings: Fig. 1c
T6 construct: L3MBTL2 (aa 170–625); GST-His (N, cleaved yes); made in house; host or cells: E. coli BL21 (DE3) Codon plus RIL
Source text: as §1, §2

[8] = molecular target: T7, ZCWPW2 (CW) (Homo sapiens, UniProt Q504Y3); assay: ITC binding to CW domain of ZCWPW2; settings: Fig. 1c
T7 construct: ZCWPW2 (aa 21–78); His (N, cleaved yes); made in house; host or cells: E. coli BL21 (DE3) Codon plus RIL
Source text: as §1, §2

T1 sequence (P51114 2-132): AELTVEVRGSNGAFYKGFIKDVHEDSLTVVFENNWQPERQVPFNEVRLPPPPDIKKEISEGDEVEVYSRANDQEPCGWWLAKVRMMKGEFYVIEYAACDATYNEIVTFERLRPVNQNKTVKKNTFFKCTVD
T7 sequence (Q504Y3 21-78): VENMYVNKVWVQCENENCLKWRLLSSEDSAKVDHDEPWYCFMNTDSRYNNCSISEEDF
T6 sequence (Q969R5 170-625): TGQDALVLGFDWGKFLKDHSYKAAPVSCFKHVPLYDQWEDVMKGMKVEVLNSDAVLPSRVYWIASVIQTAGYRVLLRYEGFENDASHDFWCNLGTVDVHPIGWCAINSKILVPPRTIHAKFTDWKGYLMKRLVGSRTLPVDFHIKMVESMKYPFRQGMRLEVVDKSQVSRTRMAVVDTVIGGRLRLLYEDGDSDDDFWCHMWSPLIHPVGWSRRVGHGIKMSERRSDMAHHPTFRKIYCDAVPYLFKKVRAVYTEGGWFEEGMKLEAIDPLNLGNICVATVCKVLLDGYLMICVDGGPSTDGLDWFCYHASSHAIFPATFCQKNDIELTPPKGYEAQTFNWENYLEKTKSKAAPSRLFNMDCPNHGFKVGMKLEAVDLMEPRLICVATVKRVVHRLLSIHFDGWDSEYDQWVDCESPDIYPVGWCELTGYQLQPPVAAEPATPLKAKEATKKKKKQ
T4 sequence (Q9Y6K1 275-417): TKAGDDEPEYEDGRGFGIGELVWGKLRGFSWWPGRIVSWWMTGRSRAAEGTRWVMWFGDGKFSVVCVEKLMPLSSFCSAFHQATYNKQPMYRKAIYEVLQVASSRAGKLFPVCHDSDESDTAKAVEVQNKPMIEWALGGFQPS
T5 sequence (O43189 28-87): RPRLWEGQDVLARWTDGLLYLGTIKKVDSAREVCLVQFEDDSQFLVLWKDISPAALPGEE
T3 sequence (Q16637 82-147 Y130A): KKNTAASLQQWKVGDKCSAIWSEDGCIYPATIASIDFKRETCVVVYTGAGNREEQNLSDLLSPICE

Structure (SMILES): Cn1c2c(c(=N)c3c1CCC3)CCC2 [Compound 1, 4-methyl-2,3,4,5,6,7-hexahydrodicyclopenta[b,e]pyridin-8(1H)-imine]
- Kd ([1]; ITC, Fig. 1c): > 100 µM
- ITC binding curve, FXR1 (in words) ([1]; Supplementary Fig. 2e): Weak binding
- Kd [2]: > 244 µM
- Kd [3]: > 244 µM
- Kd [4]: > 244 µM
- concentration dissolved in DMSO ([5]; DMSO): 100000 µM
- solubility in buffer at high concentration ([5]; buffer): but not in buffer
- Kd [6]: > 244 µM
- Kd [7]: > 244 µM
- Kd [8]: > 244 µM
